# Results: article PMC7591920, “A protein tertiary structure mimetic modulator of the Hippo signalling pathway” (Nature Communications, 2020)
# Bridge positions count the residues as written; N and C are the ends. Square brackets hold non-standard residues; d marks the D form. Peptide text beside a SMILES is read from it. AEEA = NCCOCCOCC(=O)O
# Key:
# GST-hTEAD1 = target: T1, GST-hTEAD1 (Homo sapiens, UniProt P28347); assay: SPR binding to immobilised GST-hTEAD1; conditions: GST-hTEAD1 amine-coupled on CM5, multi-cycle, steady-state fit 1:1 model, 10 mM HEPES 150 mM NaCl 0.05% Tween-20 pH 7.4, 0.3% DMSO, 20 °C, Fig. 1 values n = 1 replicate
# T1 construct: CDNA of hTEAD1(209–426) fused with an N-terminal GST tag; made in house; host or cells: Escherichia coli BL21 DE3 RIL(K+)
# In short: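 Proteins amine-coupled (NHS/EDC) to CM5 chips from 10 mM MES pH 6.4; running buffer 10 mM HEPES, 150 mM NaCl, 0.05% Tween-20, pH 7.4, 20 °C, 30 µL min^−1. Multi-cycle kinetics: seven threefold analyte dilutions from 30 µM, 45 s contact, 6-min dissociation, reference-surface subtracted.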
# rat heart cells = assay: Cell toxicity assessment on rat heart cells in culture; conditions: c(peptide) = 10 µM
# Protocol: whole heart cells monitored by fluorescence microscopy after 90 minutes treatments (scale bar: 25 µm), number of […]
# 4E as well as control compounds (SB203580, CHIR99021) on rat heart cells in culture (c(peptide) = 10 µM). Number of independent biological replicates: n = 6, error bars = SEM. […]
# cytometry analysis of live cells after 90 min incubation at 5 µM: Representative histogram plot, (-) DMSO control). Source data are provided as a Source Data file.
# (1 picture or pasted object on this page, not shown here)
# RKO cells [1] = assay: Total drug content in RKO cells by UPLC-MS; conditions: for Total drug content, Measured Concentration: RIPA total lysis, diluted lysate; for Total drug content, Measured Concentration / Total drug content / Measured Conc: UPLC-MS; for Total drug content, Measured Concentration / Total drug content: n = 2; for Total drug content: total lysis
# Protocol: (§1) Peptides were incubated in RKO cells (ATCC, #CRL-2577) as follows: Experiment 1: RKO cells were incubated in 25 µM compound for 90 min and 24 h. Experiment 2: RKO cells were incubated in 25 µM for 30 min or 72 h. Following peptide incubation, the cells were washed twice with PBS, trypsinized and pelleted. The pellets were lysed in RIPA buffer (Perkin Elmer) for total lysis, or CelLytic NuCLEAR Extraction Kit (SIGMA) for subcellular fractionation. Total protein quantification BCA (Pierce) was performed prior to MS analysis to normalize sample data. Total and fractionated cell lysates were analysed by quantitative UPLC-MS utilizing a Waters Xevo TQ-XS (WBA0259) and an Acquity UPLC system from Waters consisting of Sample Manager (M16UFL953M), Acquity PDA (F17UPD457A), Column Oven (E17CMP703G) and Binary Solvent Manager (E17BUR621G). […] Chromatograms of the samples were treated similarly, and by linear regression (1/x) an in-cell concentration was established in the re-suspended cell lysate using the Waters MassLynx TargetLynx^TM product.
# [2] = system: primary juvenile (P5–P6) rat cardiomyocytes; assay: Cell cycle activity assay (Ki67/αActinin) in juvenile rat cardiomyocytes; format: cell-based; conditions: for Dose-dependent cell cycle stimulation, MEAN: 4-day treatment, relative to DMSO (100), mean of n = 3
# Protocol: One day after seeding, the cells were treated with test compounds of interest. Treatments were applied with an ECHO 520 acoustic dispenser (Labcyte) and medium was added to the wells. Four days after treatment, the cells were fixed with 4% formaldehyde (Roth) and immunostained in 0.2% Triton-X100 (Roth) in PBS (Gibco) supplemented with 5% FBS. […] Samples were then imaged and analysed on an ImageXpress XL automated microscope (Molecular Devices). Data are depicted as means ± SEM.
# RKO cells [3] = assay: Sub-cellular (cytoplasmic, nuclear) peptide concentration in RKO cells by UPLC-MS; conditions: for Sub-cellular drug content, Cytoplasm / Sub-cellular drug content, Cytoplasm, Measured concentration / Sub-cellular drug content, Nuclear / Sub-cellular drug content, Nuclear, Measured concentration: n = 2
# Protocol: as §1
# YAP–TEAD interaction = assay: Proximity ligation assay (PLA) in RKO cells; format: cell-based; conditions: 24 h incubation, c = 30 µM
# Protocol: Ca. 5000 RKO cells were seeded per well in black 96-well plates with glass bottom (#5241-20, MoBiTec) and treated with the peptides or DMSO as vehicle control. After 24 h, the cells were fixed for 10 min using 4% paraformaldehyde (#UN2209, AppliChem) in PBS prior to permeabilization with 0.1% Triton X-100 (#39795.02, Serva) in PBS for 10 min. […] The cells were treated with the corresponding PLA probes (donkey anti-rabbit PLUS, #DUO92002, dilution 1:5; donkey anti-mouse MINUS, #DUO92004, dilution 1:5, Sigma-Aldrich) and with the Duolink In Situ Detection Orange Kit (#DUO92007, Sigma-Aldrich) for ligation and amplification according to the manufacturer's instructions. Finally, the cells were treated with 1 μg mL^-1 DAPI (#D9542, Sigma-Aldrich) to stain nuclei for further microscopy analysis. Images were acquired using a Zeiss Observer Z1 microscope with an 63× oil objective. Picture data were analysed by the ImageJ “analyze particles” macro to count PLA spots per cell. Ten pictures were counted for each condition per experiment. Statistical analysis was performed using Student's paired t test.
# RKO cells [4] = assay: Wound closure assay; format: cell-based
# Protocol: Ca. 100,000 RKO cells were seeded per well in a transparent ImageLock 96-well plate (#4379, Essen Bioscience) and treated with the samples the next day. Wound Healing Assay was performed using the IncuCyte® ZOOM system and the WoundMaker™ device (both Essen Bioscience). The scratch was performed according to manufacturer’s protocol and images were acquired every 2 h. Image-based analysis of wound closure was conducted using the IncuCyte ZOOM 2016B software (Essen Bioscience). Confluency within the wound area was normalized to the confluency at the time of scratch preparation and plotted using GraphPad Prism 6.
# [5] = 25 µM, authors' response in peer review file
# [6] = 25 µM compound, 90 minutes, fractionation, UPLC-MS
# [7] = 25 µM compound, 24 hours, fractionation, UPLC-MS
# T1 sequence (P28347 209-426): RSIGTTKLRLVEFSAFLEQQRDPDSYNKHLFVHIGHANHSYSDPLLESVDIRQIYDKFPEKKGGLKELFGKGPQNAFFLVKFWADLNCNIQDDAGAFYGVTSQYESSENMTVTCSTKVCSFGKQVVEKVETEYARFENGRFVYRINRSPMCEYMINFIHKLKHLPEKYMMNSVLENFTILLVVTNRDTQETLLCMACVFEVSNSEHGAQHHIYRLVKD
compound,measurement,setting,value
CC[C@H](C)[C@@H]1NC(=O)[C@H](CCC(N)=O)NC(=O)[C@H](CC(C)C)NC(=O)[C@H](Cc2c[nH]c3ccccc23)NC(=O)[C@H]([C@@H](C)O)NC(=O)[C@H](CC(=O)O)NC(=O)CNC(=O)[C@H](CC(C)C)NC(=O)[C@H](C)NC(=O)[C@H](CCCCN)NC(=O)[C@H](C)NC(=O)[C@H](Cc2ccccc2)NC(=O)[C@H](Cc2c[nH]cn2)NC(=O)[C@H](CC(=O)O)NC(=O)[C@@H](NC(=O)[C@@H](NC(=O)[C@H](CO)NC(=O)COCCOCCNC(=O)[C@H](CCC(N)=O)NC(=O)[C@@H]2CCCN2C(=O)[C@H](CCCNC(=N)N)NC(=O)[C@H](CCCNC(=N)N)NC(=O)[C@H](CCCNC(=N)N)NC(=O)[C@H](CCC(N)=O)NC(=O)[C@H](CCCNC(=N)N)NC(=O)[C@H](CCCNC(=N)N)NC(=O)[C@H](CCCCN)NC(=O)[C@H](CCCCN)NC(=O)[C@H](CCCNC(=N)N)NC(=O)CNC(C)=O)C(C)C)CCC(=O)NCCCC[C@@H](C(=O)N[C@@H](C)C(=O)N[C@@H](C)C(N)=O)NC1=O [compound 7] (Ac-GRKKRRQRRRPQ[AEEA]SVEDHFAKALGDTWLQIKAA-NH2; lactam 16-31),Kd,GST-hTEAD1,830 ± 780 nM
same,Total cell number (% DMSO control),rat heart cells; raw data replicate 1,121.364 % DMSO control
same,Total cell number (% DMSO control),rat heart cells; raw data replicate 2,169.336 % DMSO control
same,Total cell number (% DMSO control),rat heart cells; raw data replicate 3,227.316 % DMSO control
same,Total cell number (% DMSO control),rat heart cells; raw data replicate 4,141.087 % DMSO control
same,Total cell number (% DMSO control),rat heart cells; raw data replicate 5,122.138 % DMSO control
same,Total cell number (% DMSO control),rat heart cells; raw data replicate 6,106.984 % DMSO control
same,"Total drug content, Measured Concentration","RKO cells [1]; 25 µM compound, 90 minutes",122.09 ± 7.277 nM
same,Total drug content,"RKO cells [1]; 25 µM compound, 90 minutes",0.1831 ± 0.01091 nmol
same,"Total drug content, Measured Concentration","RKO cells [1]; 25 µM compound, 24 hours",91.646 ± 61.816 nM
same,Total drug content,"RKO cells [1]; 25 µM compound, 24 hours",0.1375 ± 0.09272 nmol
same,loss of total concentration between 90 min and 24 h incubation,RKO cells [1]; [5],30%
same,Measured Conc,"RKO cells [1]; total drug content, 25 µM compound, 90 minutes, dilution factor 10, replicate 1",114.813 nM
same,Measured Conc,"RKO cells [1]; total drug content, 25 µM compound, 90 minutes, dilution factor 10, replicate 2",129.367 nM
same,"pMol/mg of protein, Mean","RKO cells [1]; total drug content, 25 µM compound, 90 minutes, mean of 2 replicates",183.0 pMol/mg of protein
same,Measured Conc,"RKO cells [1]; total drug content, 25 µM compound, 24 hours, dilution factor 10, replicate 1",153.462 nM
same,Measured Conc,"RKO cells [1]; total drug content, 25 µM compound, 24 hours, dilution factor 10, replicate 2",29.83 nM
same,"pMol/mg, Mean","RKO cells [1]; total drug content, 25 µM compound, 24 hours, mean of 2 replicates",127.1 pMol/mg
same,"Dose-dependent cell cycle stimulation, MEAN",[2]; 1 mM (so in the source),106.813
same,"Dose-dependent cell cycle stimulation, MEAN",[2]; 5 mM (so in the source),131.729
same,"Dose-dependent cell cycle stimulation, MEAN",[2]; 10 mM (so in the source),172.672
same,Effect on cardiomyocyte cell cycle activity,"[2]; P5–P6 rat heart cells, 4-days incubation, Ki67/αActinin double-positive cells",stimulates cell cycle activity to the same extent as positive controls
same,"Cell cycle activity, MEAN","[2]; c = 10 µM, 4 days, relative to DMSO-treated cells (100), mean of N = 6",148.037
same,"Sub-cellular drug content, Cytoplasm",RKO cells [3]; [6],0.07968 nmol
same,"Sub-cellular drug content, Cytoplasm, Measured concentration",RKO cells [3]; [6],265.5865 nM
same,"Sub-cellular drug content, Nuclear",RKO cells [3]; [6],0.1853 nmol
same,"Sub-cellular drug content, Nuclear, Measured concentration",RKO cells [3]; [6],123.5385 ± 6.5745 nM
same,"Sub-cellular drug content, Cytoplasm",RKO cells [3]; [7],0.04677 nmol
same,"Sub-cellular drug content, Cytoplasm, Measured concentration",RKO cells [3]; [7],155.914 ± 40.331 nM
same,"Sub-cellular drug content, Nuclear",RKO cells [3]; [7],0.06065 nmol
same,"Sub-cellular drug content, Nuclear, Measured concentration",RKO cells [3]; [7],202.161 ± 23.082 nM
same,loss of cytosolic concentration between 90 min and 24 h incubation,RKO cells [3]; [5],47%
same,pMol/mg,"RKO cells [3]; Cytoplasm, 25 µM compound, 90 minutes (1.5 hrs), replicate 1",104.1 pMol/mg
same,pMol/mg,"RKO cells [3]; Cytoplasm, 25 µM compound, 90 minutes (1.5 hrs), replicate 2",74.3 pMol/mg
same,pMol/mg,"RKO cells [3]; Cytoplasm, 25 µM compound, 24 hours, replicate 1",73.3 pMol/mg
same,"pMol/mg, Mean","RKO cells [3]; Nuclear, 25 µM compound, 90 minutes (1.5 hrs), mean of 2 replicates",231.15 pMol/mg
same,pMol/mg,"RKO cells [3]; Nuclear, 25 µM compound, 24 hours, replicate 1",336.5 pMol/mg
same,Cytoplasmic concentration of peptide,"RKO cells [3]; cytoplasmic fraction, UPLC-MS, mean of n = 2",89.2 pMols/mg of protein
same,Nuclear concentration of peptide,"RKO cells [3]; nuclear fraction, UPLC-MS, mean of n = 2",209 pMols/mg of protein
same,Detection in cytoplasmic and nuclear fractions,"RKO cells [3]; unlabelled peptide 25 µM, 90 min and 24 h, fractionation, UPLC-MS",found in both compartments
same,Effect on YAP–TEAD complexes (PLA),YAP–TEAD interaction,an increase in YAP–TEAD complexes
same,Effect on wound closure,"RKO cells [4]; c = 30 µM, 48 h treatment",considerably increased wound closure
same,Wound closure (%),"RKO cells [4]; dose-dependent, 1 µM peptide 7, mean of n = 3",53.07%
same,Wound closure (%),"RKO cells [4]; dose-dependent, 5 µM peptide 7, mean of n = 3",61.51%
same,Wound closure (%),"RKO cells [4]; dose-dependent, 10 µM peptide 7, mean of n = 3",67.72%
same,Wound closure (%),"RKO cells [4]; dose-dependent, 30 µM peptide 7, mean of n = 3",76.06%
same,Wound closure (%),"RKO cells [4]; time-dependent, 12 hours, mean of n = 3",26.59%
same,Wound closure (%),"RKO cells [4]; time-dependent, 24 hours, mean of n = 3",49.56%
same,Wound closure (%),"RKO cells [4]; time-dependent, 36 hours, mean of n = 3",65.47%
same,Wound closure (%),"RKO cells [4]; time-dependent, 48 hours, mean of n = 3",75.27%
